Measurements taken from ChEMBL document CHEMBL4368904 (J Med Chem, 2019).

Legend:
[1] = target: T1, Adenosine receptor A1 (Mus musculus) (UniProt Q60612); assay: Agonist activity at mouse A1A adenosine receptor at 10 uM after 60 mins by [35S]GTPgammaS binding assay relative to (2S,3S,4R,5R)-5-(6-amino-9H-purin-9-yl)-N-ethyl-3,4-dihydroxytetrahydrofuran-2-carboxamide; format: functional
T1 sequence (whole entry): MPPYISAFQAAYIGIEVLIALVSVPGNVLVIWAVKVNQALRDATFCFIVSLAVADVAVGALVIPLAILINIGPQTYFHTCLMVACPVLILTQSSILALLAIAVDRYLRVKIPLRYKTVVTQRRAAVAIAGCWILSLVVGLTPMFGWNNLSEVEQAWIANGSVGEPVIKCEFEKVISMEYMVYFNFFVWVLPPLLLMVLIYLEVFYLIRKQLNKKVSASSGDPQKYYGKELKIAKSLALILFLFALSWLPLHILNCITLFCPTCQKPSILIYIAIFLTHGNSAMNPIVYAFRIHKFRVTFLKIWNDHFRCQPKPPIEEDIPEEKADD

[2] = target: Adenosine receptor A2a (Mus musculus) (UniProt Q60613); assay: Displacement of [3H]2-[p-(2-carboxyethyl)phenylethylamino]-5-N-ethylcarboxamidoadenosine from mouse A2A adenosine receptor expressed in HEK293 cell membranes at 10 uM after 60 mins by scintillation proximity assay relative to adenosine 5-N-ethyluronamide
Chain of Adenosine receptor A2a (Mus musculus) (Q60613 whole entry): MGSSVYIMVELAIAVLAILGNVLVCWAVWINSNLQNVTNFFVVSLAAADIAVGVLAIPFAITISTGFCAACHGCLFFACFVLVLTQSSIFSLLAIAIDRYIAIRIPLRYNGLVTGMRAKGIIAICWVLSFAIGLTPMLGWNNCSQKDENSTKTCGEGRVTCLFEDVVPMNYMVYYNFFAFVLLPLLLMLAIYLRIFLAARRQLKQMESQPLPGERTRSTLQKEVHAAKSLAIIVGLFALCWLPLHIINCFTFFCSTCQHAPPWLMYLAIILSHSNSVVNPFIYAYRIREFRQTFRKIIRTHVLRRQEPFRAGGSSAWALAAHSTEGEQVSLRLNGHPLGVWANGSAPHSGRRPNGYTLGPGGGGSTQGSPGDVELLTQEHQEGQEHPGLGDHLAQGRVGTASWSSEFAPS

[3] = Fraction unbound in mouse plasma at 10 uM; format: ADME, cell-free
[4] = species on record: Mus musculus; assay: Selectivity index, ratio of Ki for mouse A3A adenosine receptor to Ki for mouse A1A adenosine receptor expressed in CHO cell membranes after 60 mins by scintillation proximity assay
[5] = system: Mus musculus; assay: Induction of hypothermia in C57BL/6J mouse assessed as body temperature at 3 mg/kg, ip measured at 60 mins post dose (reference value: 36.3 +/- 0.8 degC); format: functional
[6] = target: T2, Adenosine receptor A2a (Homo sapiens, UniProt P29274); assay: Displacement of [3H]2-[p-(2-carboxyethyl)phenylethylamino]-5-N-ethylcarboxamidoadenosine from human A2A adenosine receptor expressed in HEK293 cell membranes at 10 uM after 60 mins by scintillation proximity assay relative to adenosine 5-N-ethyluronamide
T2 sequence (P29274 whole entry): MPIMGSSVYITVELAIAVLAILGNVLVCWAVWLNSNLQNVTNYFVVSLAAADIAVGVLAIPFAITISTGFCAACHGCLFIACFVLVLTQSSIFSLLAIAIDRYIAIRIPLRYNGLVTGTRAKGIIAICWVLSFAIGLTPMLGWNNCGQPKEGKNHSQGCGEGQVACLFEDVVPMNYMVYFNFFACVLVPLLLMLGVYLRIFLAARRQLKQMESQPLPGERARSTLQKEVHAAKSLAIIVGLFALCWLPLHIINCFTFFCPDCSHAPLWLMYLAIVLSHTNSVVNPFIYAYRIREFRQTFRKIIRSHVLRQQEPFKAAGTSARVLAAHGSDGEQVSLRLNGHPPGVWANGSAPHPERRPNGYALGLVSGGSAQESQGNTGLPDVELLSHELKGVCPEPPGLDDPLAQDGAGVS

[7] = Fraction unbound in rat plasma at 10 uM; format: ADME, cell-free
[8] = system: Mus musculus; assay: Induction of hypothermia in C57BL/6J mouse assessed as activity counts at 3 mg/kg, ip measured at 60 mins post dose (reference value: 15.5 +/- 5.5); format: functional
[9] = target: T3, Adenosine receptor A3 (Mus musculus) (UniProt Q61618); assay: Agonist activity at mouse A3AR adenosine receptor at 10 uM after 60 mins by [35S]GTPgammaS binding assay relative to (2S,3S,4R,5R)-5-(6-amino-9H-purin-9-yl)-N-ethyl-3,4-dihydroxytetrahydrofuran-2-carboxamide; format: functional
T3 sequence (whole entry): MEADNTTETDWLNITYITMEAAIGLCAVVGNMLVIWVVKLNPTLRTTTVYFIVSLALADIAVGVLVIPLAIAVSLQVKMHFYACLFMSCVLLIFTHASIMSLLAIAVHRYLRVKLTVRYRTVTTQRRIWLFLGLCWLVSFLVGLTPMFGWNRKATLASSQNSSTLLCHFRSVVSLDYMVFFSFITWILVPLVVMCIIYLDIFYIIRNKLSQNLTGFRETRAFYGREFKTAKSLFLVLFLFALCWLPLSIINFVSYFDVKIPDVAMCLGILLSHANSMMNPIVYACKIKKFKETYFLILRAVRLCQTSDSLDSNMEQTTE

[10] = Fraction unbound in human plasma at 10 uM; format: ADME, cell-free
[11] = system: Mus musculus; assay: Induction of hypothermia in C57BL/6J mouse assessed as body temperature at 10 mg/kg, ip measured at 60 mins post dose (reference value: 36.3 +/- 0.8 degC); format: functional
[12] = system: Mus musculus; assay: Induction of hypothermia in C57BL/6J mouse assessed as activity counts at 10 mg/kg, ip measured at 60 mins post dose (reference value: 15.5 +/- 5.5); format: functional
[13] = target: Sigma intracellular receptor 2 (Homo sapiens, UniProt Q5BJF2); assay: Inhibition of sigma receptor 2 (unknown origin)
Chain of Sigma intracellular receptor 2 (Q5BJF2 whole entry): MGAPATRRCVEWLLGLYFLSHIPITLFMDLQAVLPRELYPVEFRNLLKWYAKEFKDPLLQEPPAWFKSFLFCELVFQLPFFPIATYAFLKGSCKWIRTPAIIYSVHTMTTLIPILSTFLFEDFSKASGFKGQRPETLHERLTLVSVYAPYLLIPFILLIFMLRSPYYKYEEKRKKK

[14] = target: Translocator protein (Homo sapiens, UniProt P30536); assay: Inhibition of TSPO (unknown origin)
Chain of Translocator protein (P30536 whole entry): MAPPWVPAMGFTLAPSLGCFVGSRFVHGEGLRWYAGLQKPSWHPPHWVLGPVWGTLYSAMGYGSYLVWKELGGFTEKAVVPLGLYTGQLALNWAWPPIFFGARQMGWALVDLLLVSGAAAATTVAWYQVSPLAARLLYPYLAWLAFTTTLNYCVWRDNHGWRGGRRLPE

[15] = target: T4, Adenosine receptor A1 (Mus musculus, UniProt Q60612); assay: Displacement of [3H]N6-R-phenylisopropyladenosine from mouse A1A adenosine receptor expressed in CHO cell membranes after 60 mins by scintillation proximity assay
T4 sequence (Q60612 whole entry): T1 sequence (whole entry)

[16] = target: T5, Adenosine receptor A3 (Mus musculus, UniProt Q61618); assay: Displacement of [125I]N6-(4-amino-3-iodobenzyl)adenosine-5-N-methyluronamide from mouse A3A adenosine receptor expressed in CHO cell membranes after 60 mins by scintillation proximity assay
T5 sequence (Q61618 whole entry): T3 sequence (whole entry)

[17] = target: 5-hydroxytryptamine receptor 2B (Homo sapiens, UniProt P41595); assay: Inhibition of 5HT2B (unknown origin)
Chain of 5-hydroxytryptamine receptor 2B (P41595 whole entry): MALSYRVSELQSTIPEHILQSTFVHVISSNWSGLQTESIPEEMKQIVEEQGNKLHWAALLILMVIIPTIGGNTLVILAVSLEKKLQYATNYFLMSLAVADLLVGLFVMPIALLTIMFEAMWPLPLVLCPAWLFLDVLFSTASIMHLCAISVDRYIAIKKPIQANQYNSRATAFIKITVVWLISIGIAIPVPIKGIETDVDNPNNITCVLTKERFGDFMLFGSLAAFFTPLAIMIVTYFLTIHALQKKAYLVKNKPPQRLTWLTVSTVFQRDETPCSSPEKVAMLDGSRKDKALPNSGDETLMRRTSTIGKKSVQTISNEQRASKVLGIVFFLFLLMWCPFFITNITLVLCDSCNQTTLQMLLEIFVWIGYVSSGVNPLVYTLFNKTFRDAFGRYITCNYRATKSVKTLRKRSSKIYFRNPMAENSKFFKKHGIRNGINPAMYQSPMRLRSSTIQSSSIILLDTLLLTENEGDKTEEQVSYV

[18] = target: T6, Adenosine receptor A3 (Homo sapiens) (UniProt P0DMS8); assay: Displacement of [125I]N6-(4-amino-3-iodobenzyl)adenosine-5-N-methyluronamide from human A3A adenosine receptor expressed in CHO cell membranes at 10 uM after 60 mins by scintillation proximity assay relative to adenosine 5-N-ethyluronamide
T6 sequence (whole entry): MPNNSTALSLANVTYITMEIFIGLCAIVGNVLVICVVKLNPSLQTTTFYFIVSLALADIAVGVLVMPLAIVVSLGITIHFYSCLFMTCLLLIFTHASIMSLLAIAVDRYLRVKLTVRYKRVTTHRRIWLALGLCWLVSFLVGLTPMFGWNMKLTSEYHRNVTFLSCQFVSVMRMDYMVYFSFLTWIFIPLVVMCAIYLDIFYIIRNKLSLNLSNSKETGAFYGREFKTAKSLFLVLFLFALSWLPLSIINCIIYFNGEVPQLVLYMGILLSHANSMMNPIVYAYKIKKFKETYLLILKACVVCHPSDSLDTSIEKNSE

[19] = target: T3, Adenosine receptor A3 (Mus musculus); assay: Displacement of [125I]N6-(4-amino-3-iodobenzyl)adenosine-5-N-methyluronamide from mouse A3A adenosine receptor expressed in CHO cell membranes at 10 uM after 60 mins by scintillation proximity assay relative to adenosine 5-N-ethyluronamide
[20] = target: T2, Adenosine receptor A2a; assay: Displacement of [3H]2-[p-(2-carboxyethyl)phenylethylamino]-5-N-ethylcarboxamidoadenosine from human A2A adenosine receptor expressed in HEK293 cell membranes after 60 mins by scintillation proximity assay
[21] = target: T7, Adenosine receptor A1 (Homo sapiens, UniProt P30542); assay: Displacement of [3H]N6-R-phenylisopropyladenosine from human A1A adenosine receptor expressed in CHO cell membranes after 60 mins by scintillation proximity assay
T7 sequence (P30542 whole entry): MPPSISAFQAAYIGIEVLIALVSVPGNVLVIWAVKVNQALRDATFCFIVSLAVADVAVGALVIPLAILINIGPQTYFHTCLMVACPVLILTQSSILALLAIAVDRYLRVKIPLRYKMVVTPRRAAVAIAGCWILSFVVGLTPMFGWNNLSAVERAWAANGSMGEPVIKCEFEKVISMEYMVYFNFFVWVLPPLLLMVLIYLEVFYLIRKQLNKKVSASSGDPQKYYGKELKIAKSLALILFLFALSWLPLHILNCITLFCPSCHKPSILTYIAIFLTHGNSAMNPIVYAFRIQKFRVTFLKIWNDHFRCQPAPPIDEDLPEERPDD

[22] = target: T8, Adenosine receptor A3 (Homo sapiens, UniProt P0DMS8); assay: Displacement of [125I]N6-(4-amino-3-iodobenzyl)adenosine-5-N-methyluronamide from human A3A adenosine receptor expressed in CHO cell membranes after 60 mins by scintillation proximity assay
T8 sequence (P0DMS8 whole entry): T6 sequence (whole entry)

[23] = target: T9, Adenosine receptor A1 (Homo sapiens) (UniProt P30542); assay: Displacement of [3H]N6-R-phenylisopropyladenosine from human A1A adenosine receptor expressed in CHO cell membranes at 10 uM after 60 mins by scintillation proximity assay relative to adenosine 5-N-ethyluronamide
T9 sequence (whole entry): T7 sequence (P30542 whole entry)

O[C@H]1[C@H](n2cnc3c(N[C@H]4C[C@H]5CC[C@@H]4C5)nc(Cl)nc32)[C@H]2C[C@@]2(CCl)[C@H]1O
Emax [1]: 123% | inhibition [2]: 15% | Fu [3]: 2.95% | Ratio Ki [4]: 270 | T [5]: 36.6 °C | inhibition [6]: 54% | Fu [7]: 2.53% | Activity [8]: 16.8 | Emax [9]: 50% | Fu [10]: 4.04%

O[C@H]1[C@H](n2cnc3c(NC(C4CCC4)C4CCC4)nc(Cl)nc32)[C@H]2C[C@@]2(CCl)[C@H]1O
inhibition [2]: 20% | T [11]: 36.5 °C | Activity [12]: 18.9 | inhibition [6]: 17% | Ki [13]: 0.349 µM | Ki [14]: 2.89 µM

OC[C@H]1O[C@@H](n2cnc3c(NC(C4CCC4)C4CCC4)nc(Cl)nc32)[C@H](O)[C@@H]1O
Emax [1]: 90% | Fu [3]: 4.74% | Ratio Ki [4]: 1000 | T [5]: 35.5 °C | Fu [7]: 4.64% | Activity [8]: 13.5 | Emax [9]: 63% | Fu [10]: 5.81%

CNC(=O)[C@]12C[C@@H]1[C@@H](n1cnc3c(NC4CCCC4)nc(Cl)nc31)[C@H](O)[C@@H]2O
Ki [15]: 0.00068 µM | Ki [16]: 0.00346 µM | Ki [17]: 0.012 µM

OC[C@@]12C[C@@H]1[C@@H](n1cnc3c(N[C@H]4C[C@H]5CC[C@@H]4C5)nc(Cl)cc31)[C@H](O)[C@@H]2O
inhibition [6]: 29%

OC[C@H]1O[C@@H](n2cnc3c(N[C@H]4C[C@H]5CC[C@@H]4C5)ncnc32)[C@H](O)[C@@H]1O
Ki [15]: 0.00014 µM | Ki [16]: 0.424 µM

CCOC(=O)[C@@]12C[C@@H]1[C@@H](n1cnc3c(NC(C4CCC4)C4CCC4)nc(Cl)nc31)[C@H](O)[C@@H]2O
inhibition [6]: 57% | Ki [13]: 2.02 µM

NC(=O)c1ncn([C@@H]2O[C@H](CO)[C@@H](O)[C@H]2O)n1
inhibition [18]: 16% | inhibition [6]: 23% | inhibition [19]: 0%

O[C@@H]1[C@H](O)[C@@H](CSc2ccccc2F)O[C@H]1n1cnc2c(N[C@@H]3CCC[C@H]3O)ncnc21 [GS-9667]
Ki [20]: > 10 µM | Ki [21]: 0.012 µM

O[C@H]1[C@H](n2cnc3c(NC(C4CCC4)C4CCC4)ncnc32)[C@H]2C[C@@]2(CCl)[C@H]1O
T [5]: 35.9 °C | inhibition [18]: 49% | inhibition [6]: 38% | Activity [8]: 14.8 | Ki [13]: 1.17 µM | Ki [14]: 2.02 µM

O[C@@H]1[C@H](O)[C@@H](CCl)O[C@H]1n1cnc2c(NC3C[C@H]4CC[C@@H]3C4)ncnc21 (mixture of isomers)
Ki [20]: 1.34 µM | T [5]: 32.2 °C | Activity [8]: 2.8 | Ki [16]: 2.41 µM | Ki [22]: 1.29 µM

Nc1ncnc2c1ncn2[C@@H]1O[C@H](C(=O)O)[C@@H](O)[C@H]1O [5'-CARBOXY ADENOSINE]
inhibition [18]: 32% | inhibition [6]: 11% | inhibition [23]: 24% | Ki [13]: 0.796 µM

O=C(NCCO)[C@@]12C[C@@H]1[C@@H](n1cnc3c(N[C@H]4C[C@H]5CC[C@@H]4C5)nc(Cl)nc31)[C@H](O)[C@@H]2O
inhibition [2]: 23%

COC(=O)c1ncn([C@H]2[C@H](O)[C@H](O)[C@]3(CO)C[C@H]23)n1
inhibition [18]: 22% | inhibition [6]: 14% | inhibition [23]: 6% | inhibition [19]: 15% | Ki [13]: 1.72 µM

O[C@@H]1[C@H](O)[C@@H](CCl)O[C@H]1n1cnc2c(NC(C3CCC3)C3CCC3)ncnc21
T [11]: 35.8 °C | Activity [12]: 20.5 | Ki [13]: 0.662 µM | Ki [14]: 3.98 µM

O[C@H]1[C@H](n2cnc3c(NC(C4CCC4)C4CCC4)nc(Cl)nc32)[C@H]2C[C@@]2(CSc2ccccc2F)[C@H]1O
inhibition [2]: 20% | inhibition [6]: 22% | inhibition [23]: 45% | Ki [13]: 0.583 µM

OC[C@@]12C[C@@H]1[C@@H](n1cnc3c(NC(C4CCC4)C4CCC4)nc(Cl)nc31)[C@H](O)[C@@H]2O
inhibition [2]: 26% | T [11]: 36.6 °C | Activity [12]: 18.4 | inhibition [18]: 25% | inhibition [6]: 55% | Ki [14]: 2.93 µM
